Measurements published in patent US5610159A, “N-oxides of morpholine derivatives and their use as therapeutic agents” (Merck Sharp & Dohme Limited, priority 1995, dated 1997).

Experiment: stability of crystals on storage
Type: physicochemical
Procedure: Dimethylamine (approximately 10 ml) was condensed at -80° C. in a pressure tube and to this was added a solution of N-(4-azidobut-2-ynyl)-2-(R)-(1-(R)-(3,5-bis(trifluoromethyl)phenyl)ethoxy)-3-(S)-(4-fluorophenyl)morpholine (3.2 g) in dioxan (15 ml). The tube was sealed and the solution was heated at 90° C. for 16 h. The solution was evaporated to dryness and the residue chromatographed on silica gel (eluting with 5% methanol in dichloromethane containing 0.25% ammonia (SG. 0.88)) and the fractions containing the desired product were evaporated in vacuo to give the title compound. To a solution of this residue in diethyl ether was added 1M-HCl in methanol. The solution was evaporated to dryness and redissolved in diethyl ether to give crystals of the title compound hydrochloride salt m.p. 194°-198° C., [α]^22D+65.0° (c=0.5, H2 O).

stability of crystals (at 40° C.): stable for at least five days
stability of crystals (at 40° C./75% relative humidity): stable for at least five days
stability of crystals (at 80° C.): stable for at least five days
stability of crystals (at 2000LUX): stable for at least five days
Structure (SMILES): C[C@@H](O[C@H]1OCCN(Cc2nn[nH]c2CN(C)C)[C@H]1c1ccc(F)cc1)c1cc(C(F)(F)F)cc(C(F)(F)F)c1 [Description 9]
